Source: PMC6024209, “Inhibition of P. aeruginosa c-di-GMP phosphodiesterase RocR and swarming motility by a benzoisothiazolinone derivative” (Chemical Science, 2016)

Molecular target: RocR (Pseudomonas aeruginosa, UniProt Q9HX69)
Experiment: RocR intrinsic fluorescence change (Kd […] by two fits); also non-competitive enzyme inhibition, Ki […]
Type: binding

Sequence of RocR (Q9HX69 whole entry): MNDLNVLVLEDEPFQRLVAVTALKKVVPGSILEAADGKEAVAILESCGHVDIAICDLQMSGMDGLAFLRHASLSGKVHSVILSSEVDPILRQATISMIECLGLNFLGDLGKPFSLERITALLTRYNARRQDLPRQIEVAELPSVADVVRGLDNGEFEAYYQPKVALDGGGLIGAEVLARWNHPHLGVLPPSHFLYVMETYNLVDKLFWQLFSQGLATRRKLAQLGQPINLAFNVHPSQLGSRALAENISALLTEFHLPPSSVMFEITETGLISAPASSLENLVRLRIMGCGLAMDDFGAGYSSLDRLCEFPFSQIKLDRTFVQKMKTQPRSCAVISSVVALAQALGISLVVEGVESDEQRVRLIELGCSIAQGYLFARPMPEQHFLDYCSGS

O=C(CCCn1sc2ccccc2c1=O)Nc1ccc(O)cc1 [compound 1]
Kd: 14 ± 2 µM
